Converted amounts (≈) assume the structure as drawn.
Key:
[1] = pH of excipient and felodipine suspensions before and after heat treatment (Example 11); format: physicochemical
Procedure: The heat treatment step involved heating the mixture at reflux for 15 minutes and allowing the mixture to stand over night.

[2] = Aqueous solubility of felodipine; format: physicochemical

aqueous solubility ([2]; all pH levels) | solubility ([2]; aqueous media) | SMILES | pH ([1]; Heat Treatment (reflux 15 minutes, stand over night)) | Δ pH ([1]; Heat Treatment versus Initial) | pH ([1]; Initial)
– | – | O=P([O-])([O-])O.[Ca+2] [Dibasic calcium phosphate (DCP), Dibasic calcium phosphate] | 4.07 | −3.32 | 7.39
about 0.0001% | 0.5 µg/mL (≈ 1.3 µM) | CCOC(=O)C1=C(C)NC(C)=C(C(=O)OC)C1c1cccc(Cl)c1Cl (racemic) [felodipine] | – | – | –
